Laboratory results as given in patent EP0702683B1, “06-SUBSTITUTED GUANINE DERIVATIVES, A PROCESS FOR THEIR PREPARATION AND THEIR USE IN TREATING TUMOUR CELLS” (Cancer Research Technology Limited, priority 1993, dated 1994).
pIC50: −log10 of the molar value. Like-named read-outs stand apart in the source and are kept apart here.

Columns and labels:
[1] = biological target: T1, ATase (Homo sapiens, UniProt P16455); assay: In vitro ATase inactivation assay with purified recombinant human ATase; format: biochemical; design: made in house; details: for ability to inactivate recombinant human ATase: up to the highest concentration used, in words; for effectiveness in the in vitro ATase inactivation assay compared with BeG: Figure 1, in words
T1 sequence (P16455 1-207): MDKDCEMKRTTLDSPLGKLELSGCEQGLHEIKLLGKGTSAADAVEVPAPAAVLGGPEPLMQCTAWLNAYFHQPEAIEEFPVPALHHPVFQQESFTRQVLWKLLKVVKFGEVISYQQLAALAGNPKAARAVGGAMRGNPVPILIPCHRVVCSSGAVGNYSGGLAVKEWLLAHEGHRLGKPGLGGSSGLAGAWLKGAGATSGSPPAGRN
Protocol: The cDNA cloning and overexpression of the human ATase has been reported previously^23. Purification of the recombinant proteins was achieved either by affinity chromatography through a DNA-cellulose column as described by Wilkinson et al.,^25, 26, or by DEAE-cellulose ion-exchange chromatography. For the latter, the ATase protein was partially purified by ammonium sulphate precipitation (30 - 60%) and dialysed against 10 mM Tris-HCl pH 7.5, 1 mM DTT, 2 mM EDTA, 10% glycerol, before loading on a DEAF-cellulose column. The ATase was then eluted with a 0-0.1 M NaCl gradient.
Compounds to be tested were dissolved in DMSO to a final concentration of 10 mM and diluted just before use in buffer I containing 1 mg/ml bovine serum albumin (IBSA). Recombinant ATase was diluted in IBSA and titrated in order that the reaction be conducted under ATase, and not substrate, limiting conditions. In each assay, fixed amounts of ATase (60-75 fmol) were incubated with varying amounts of 0^6-benzylguanine, or test compound in a total volume of 200 µl of IBSA containing 10 µg of calf thymus DNA at 37°C for 1 hour. The [^3H]-methylated-DNA substrate (100 µl containing 6.7 µg of DNA and 100 fmol of 0^6-methylguanine) was added and incubation continued at 37° for 1 hour, until the reaction was completed. Following acid hydrolysis of the DNA as previously described^21 the [^3H]-methylated protein was recovered and quantitated by liquid scintillation counting. Samples were typically assayed in duplicate and experiments repeated several times. I50 is the concentration of inactivator required to produce a 50% reduction in ATase activity.

[2] = Stability of inactivators at 37°C (spectrophotometric half life); format: physicochemical
Protocol: Inactivators (10mM in DMSO) were diluted to 0.1mM in prewarmed degassed buffer I (1mM EDTA, 50mM Tris pH 8.3) or PBS (pH 7-7.2). […] Samples were immediately transferred to a CARY13 spectrophotometer (cuvette block held at 37°C) and scanned at an appropriate wavelength (according to the spectral properties of the compound) at 3-10 minute intervals for up to 80 hours. The results were expressed as percentage absorbance change versus time and T1/2 values (half life) extrapolated from this.

[3] = biological target: T1, ATase; assay: Inactivation of ATase activity in Raji cells; format: cell-based; design: endogenous in cells; host or cells: Raji; details: Raji cells, 2 hours at 37°C; read-out: Raji I50
Protocol: Mammalian cells were cultured under standard conditions. For example, Raji (a human lymphoblastoid cell line from a Burkitt's lymphoma) cells were grown in suspension culture in RPMI medium supplemented with 10% horse serum. A375M cells are human melanoma cells from which the xenografts described below were established following subcutaneous injection into nude mice: WiDr cells are a human colon carcinoma cell line: Hamster+120 cells are a mitozolomide-selected subline of a Chinese hamster lung fibroblast V79 cell line called RJKO: Yoshida cells are a rat carcinosarcoma cell line and YRbus is a busulphan resistant subline thereof: XP cells are an SV40-transformed fibroblast cell line originally from the skin of a Xeroderma pigmentosum patient, pHMGhAT2b cells are a clone of these cells that have been transfected with a mammalian cell expression vector containing the human ATase cDNA and pHMGla cells are a clone that have been transfected with the expression vector only (i.e. one not containing the human ATase cDNA). Cell pellets were resuspended in cold (4°C) buffer I containing 2 µg/ml leupeptin and sonicated for 10 seconds at 12 µ peak to peak distance. After cooling in ice, the cells were sonicated for a further 10 seconds at 18 µ. Immediately after sonication, 0.01 volumes of 8.7 mg/ml phenylmethanesulphonylfluoride in ethanol was added and the sonicates centrifuged at 15 000 g for 10 minutes at 4°C to pellet cell debris. The supernatant was kept for determination of ATase activity (see below).
Cells were diluted to 10^6/ml in culture medium containing either the appropriate concentration of inactivator or an equivalent volume of vehicle (DMSO). Following incubation at 37°C for 2 hours the cells were harvested by centrifugation, washed twice with PBS and the resulting cell pellets (between 1-2 x 10^7 per pellet) stored at -20°C.

[4] = test system: Raji cells; assay: Sensitization of Raji cells to BCNU (XTT assay); format: cell-based, human; details: BCNU, 2 hour pretreatment; for Raji sensitization (D90.^C/D90.^I) 0.5µM: inactivator 0.5µM; for Raji sensitization (D90.^C/D90.^I) 1.0µM: inactivator 1.0µM; for Raji sensitization (D90.^C/D90.^I) O.1µM: inactivator O.1µM
Protocol: Following a 2 hour incubation at 37°C, medium containing either increasing doses of BCNU, temozolomide or equivalent vehicle was added and the cells allowed to grow for 6 days. At this time XTT solution was added and the cells incubated for a further 4 hours at 37°C. The resulting red/orange formazan reaction product was quantified by measuring absorption at 450nm on a microtitre platereader.

[5] = test system: A375M cells; assay: Sensitization of A375M cells to BCNU (MTT assay); format: cell-based, human; details: for A375M sensitization (D50.^C/D50.^I) 0.5uM: inactivator 0.5uM 2 hours before; for A375M sensitization (D50.^C/D50.^I) 5.0uM: inactivator 5.0uM 2 hours before; for A375M sensitization (D50.^C/D50.^I) 1.0uM: inactivator 1.0uM 2 hours before
Protocol: Sensitization of A375M cells to the cytotoxic effects of BCNU was analysed by MTT assay ^24 differing from the XTT assay described above as follows. […] After 6 days MTT solution (4mg/ml) was added and cells incubated for 3 hours at 37°C. Medium was aspirated and the resulting purple formazan crystals were solubilised in DMSO (120μl) and cell viability was quantified by measuring absorption at 540nm using a microtitre plate reader.

[6] = 0.1mM in PBS (pH 7-7.2), read-out: T1/2(h) in PBS (converted)
[7] = 0.1mM in buffer I (1mM EDTA, 50mM Tris pH 8.3), read-out: T1/2(h) in Buffer I (converted)

## CC(Oc1nc(N)nc2[nH]cnc12)c1ccccc1 (racemic) [B.4214, DL-O^6-(α -methylbenzyl)guanine, reference compound]
[1]
  pIC50: < 4.22
  ability to inactivate recombinant human ATase: did not inactivate ATase up to the highest concentration used

## CC(Oc1nc(N)nc2[nH]cnc12)c1cccs1 (racemic) [B.4217, DL-O^6-(α -methylthenyl)guanine]
[1]
  pIC50: < 3.30
  ability to inactivate recombinant human ATase: did not inactivate ATase up to the highest concentration used

## CC(Oc1nc(N)nc2[nH]cnc12)c1ccsc1 (racemic) [B.4219, DL-O^6-[1-(3-thienyl)ethyl]guanine]
[2]; [6]
  half-life at 100 µM: 0.12 h
[1]
  pIC50: 4.07
[3]
  pIC50: < 6.00
[4]
  Raji sensitization (D90.^C/D90.^I) 0.5µM: 1.0
  Raji sensitization (D90.^C/D90.^I) 1.0µM: 1.0
  Raji sensitization (D90.^C/D90.^I) O.1µM: 1.0

## Nc1nc(OCc2ccsc2)c2nc[nH]c2n1 [B.4206, O^6-(3-thienylmethyl)guanine]
[5]
  A375M sensitization (D50.^C/D50.^I) 0.5uM: 3.3
  A375M sensitization (D50.^C/D50.^I) 5.0uM: 4.6
[2]; [6]
  half-life at 100 µM: > 16 h
[2]; [7]
  half-life at 100 µM: > 80 h
[1]
  pIC50: 7.52
  effectiveness in the in vitro ATase inactivation assay compared with BeG: somewhat more effective than BeG
[3]
  pIC50: 7.22
[4]
  Raji sensitization (D90.^C/D90.^I) 1.0µM: 6.0
  Raji sensitization (D90.^C/D90.^I) O.1µM: 1.6

## Nc1nc(OCc2ccoc2)c2nc[nH]c2n1 [B.4209, O^6-(3-furylmethyl)guanine]
[5]
  A375M sensitization (D50.^C/D50.^I) 1.0uM: 2.5
[2]; [6]
  half-life at 100 µM: > 16 h
[1]
  pIC50: 6.82
[3]
  pIC50: 6.82
[4]
  Raji sensitization (D90.^C/D90.^I) 0.5µM: 1.4
  Raji sensitization (D90.^C/D90.^I) 1.0µM: 2.8
  Raji sensitization (D90.^C/D90.^I) O.1µM: 1.5

## Nc1nc(OCc2ccccn2)c2nc[nH]c2n1 [B.4210, O^6-(2-picolyl)guanine]
[5]
  A375M sensitization (D50.^C/D50.^I) 1.0uM: 1.5
[2]; [6]
  half-life at 100 µM: > 16 h

## Nc1nc(OCc2cccnc2)c2[nH]cnc2n1 [B.4211, O^6-(3-picolyl)guanine]
[2]; [6]
  half-life at 100 µM: > 16 h
[1]
  pIC50: 6.37

## Nc1nc(OCc2ccc3c(c2)OCO3)c2nc[nH]c2n1 [B.4212, O^6-piperonylguanine]
[5]
  A375M sensitization (D50.^C/D50.^I) 0.5uM: 2.3
  A375M sensitization (D50.^C/D50.^I) 5.0uM: 2.5
[2]; [6]
  half-life at 100 µM: 0.72 h
[2]; [7]
  half-life at 100 µM: 1.3 h
[1]
  pIC50: 7.70
  effectiveness in the in vitro ATase inactivation assay compared with BeG: considerably better
[3]
  pIC50: 7.30
[4]
  Raji sensitization (D90.^C/D90.^I) 1.0µM: 10.7
  Raji sensitization (D90.^C/D90.^I) O.1µM: 2.7

## Nc1nc(OCc2ccc3ccccc3c2)c2nc[nH]c2n1 [B.4213, O^6-(2-naphthylmethyl)guanine]
[5]
  A375M sensitization (D50.^C/D50.^I) 1.0uM: 2.0
[2]; [6]
  half-life at 100 µM: > 16 h
[1]
  pIC50: 6.82
[3]
  pIC50: 7.52
[4]
  Raji sensitization (D90.^C/D90.^I) 0.5µM: 2.1
  Raji sensitization (D90.^C/D90.^I) 1.0µM: 2.9
  Raji sensitization (D90.^C/D90.^I) O.1µM: 1.2

## Cc1ccccc1COc1nc(N)nc2[nH]cnc12 [B.4218, O^6-(2-methylbenzyl)guanine, reference compound]
[1]
  pIC50: 4.24

## Cc1ccc(COc2nc(N)nc3[nH]cnc23)s1 [B.4220, O^6-(5-methylthenyl)guanine]
[5]
  A375M sensitization (D50.^C/D50.^I) 1.0uM: 1.3
[2]; [6]
  half-life at 100 µM: > 16 h
[1]
  pIC50: 5.05
[3]
  pIC50: < 6.00
[4]
  Raji sensitization (D90.^C/D90.^I) 0.5µM: 1.0
  Raji sensitization (D90.^C/D90.^I) 1.0µM: 1.0
  Raji sensitization (D90.^C/D90.^I) O.1µM: 1.0

## Cc1ccc(COc2nc(N)nc3[nH]cnc23)o1 [B.4221, O^6-(5-methylfurfuryl)guanine]
[5]
  A375M sensitization (D50.^C/D50.^I) 1.0uM: 1.0
[2]; [6]
  half-life at 100 µM: > 16 h
[1]
  pIC50: 5.00
[3]
  pIC50: < 6.00
[4]
  Raji sensitization (D90.^C/D90.^I) 0.5µM: 1.0
  Raji sensitization (D90.^C/D90.^I) 1.0µM: 1.0
  Raji sensitization (D90.^C/D90.^I) O.1µM: 1.0

## Nc1nc(OCc2cccc3ccccc23)c2nc[nH]c2n1 [B.4265, O^6-(1-naphthylmethyl)guanine]
[2]; [7]
  half-life at 100 µM: 60 h
[1]
  pIC50: 4.02

## Nc1nc(OCc2cc3ccccc3o2)c2nc[nH]c2n1 [B.4266, O^6-(2-benzofuranylmethyl)guanine]
[5]
  A375M sensitization (D50.^C/D50.^I) 0.5uM: 6.3
  A375M sensitization (D50.^C/D50.^I) 5.0uM: 6.3
[2]; [6]
  half-life at 100 µM: > 16 h
[1]
  pIC50: 7.46

## Nc1nc(OCc2ccc3c(c2)OCO3)c2ncn([C@@H]3O[C@H](CO)[C@@H](O)[C@H]3O)c2n1 [B.4268, O^6-piperonylguanosine]
[2]; [6]
  half-life at 100 µM: 8 h
[1]
  pIC50: 6.12

## Nc1nc(OCc2ccc(Br)s2)c2nc[nH]c2n1 [B.4269, O^6-(5-bromothenyl)guanine]
[1]
  pIC50: 8.35
[3]
  pIC50: 8.22

## Nc1nc(OCc2cnc3c(c2)OCO3)c2nc[nH]c2n1 [B.4271, O^6-(5-azapiperonyl)guanine]
[2]; [6]
  half-life at 100 µM: > 16 h
[1]
  pIC50: 6.64

## N#Cc1ccc(COc2nc(N)nc3[nH]cnc23)o1 [B.4273, O^6-(5-cyanofurfuryl)guanine]
[1]
  pIC50: 8.22

## Nc1nc(OCc2cnco2)c2nc[nH]c2n1 [B.4274, O^6-(5-oxazolylmethyl)guanine]
[1]
  pIC50: 6.47

## Nc1nc(OCc2cncs2)c2nc[nH]c2n1 [B.4275, O^6-(5-thiazolylmethyl)guanine]
[1]
  pIC50: 7.48

## Nc1nc(OCc2cc3ccccc3s2)c2ncn([C@@H]3O[C@H](CO)[C@@H](O)[C@H]3O)c2n1 [B.4276, O^6-(2-benzo[b]thienylmethyl)guanosine]
[1]
  pIC50: 6.46

## Nc1nc(OCc2ccncc2)c2nc[nH]c2n1 [B.4277, O^6-(4-picolyl)guanine]
[1]
  pIC50: 6.89

## Cn1cc([N+](=O)[O-])cc1COc1nc(N)nc2[nH]cnc12 [B.4278, O^6(1-methyl-4-nitropyrrol-2-ylmethyl) guanine]
[1]
  pIC50: 6.26

## Nc1nc(OCc2cccs2)c2ncn([C@@H]3O[C@H](CO)[C@@H](O)[C@H]3O)c2n1 [B.4279, O^6-thenylguanosine]
[1]
  pIC50: 6.05

## C=CCOc1nc(N)nc2[nH]cnc12 [O^6-allylguanine, reference compound]
[5]
  A375M sensitization (D50.^C/D50.^I) 0.5uM: 1.3
  A375M sensitization (D50.^C/D50.^I) 5.0uM: 1.9
[2]; [7]
  half-life at 100 µM: > 64 h
[1]
  pIC50: 4.66

## O^6-(2-methoxybenzyl)guanine [B.4231, reference compound]
[1]; recombinant human ATase incubated with inactivator 1 hour at 37°C before substrate, read-out: I50
  pIC50: 4.22
